Results from ChEMBL document CHEMBL1148380, “Quantitative structure-activity relationships for gammadelta T cell activation by bisphosphonates” (J Med Chem, 2004).

Experiments:
Assay type in all cases: functional, cell-based
Settings in all cases: Homo sapiens, T-cell
[1] = Inhibitory activity, for stimulation of TNF-alpha release in gamma-delta T cells, using individual observed maximum TNF-alpha release
[2] = pIC50 value for stimulation of TNF-alpha release in gamma-delta T cells, using individual observed maximum TNF-alpha release
[3] = Inhibitory activity, for stimulation of TNF-alpha release in gamma-delta T cells, using a constrained maximum TNF-alpha release of 2700 pg/mL
[4] = pIC50 value for stimulation of TNF-alpha release in gamma-delta T cells, using a constrained maximum TNF-alpha release of 2700 pg/mL

Row | Structure (SMILES) | IC50 [1] [µM] | IC50 [2] [µM] | IC50 [3] [µM] | IC50 [4] [µM]
1 | CCCCCN(C)CCC(O)(P(=O)(O)O)P(=O)(O)O [IBANDRONIC ACID] | 31 | 31.6 | 31 | 30.9
2 | O=P(O)(O)C(O)(Cc1cnc2ccccn12)P(=O)(O)O [MINODRONIC ACID] | 4.1 | 4.07 | 8 | 7.94
3 | CC(N)CC(O)(P(=O)(O)O)P(=O)(O)O (stereo not given) | 63 | 63.1 | 110 | 110
4 | O=P(O)(O)C(O)(CCc1cccnc1)P(=O)(O)O | 228 | 229 | 917 | 912
5 | O=P(O)(O)C(NC1CCCC1)P(=O)(O)O [(CYCLOPENTYLAMINO)METHYLENEDIPHOSPHONIC ACID] | 25 | 25.1 | 55 | 55
6 | O=P(O)(O)C(O)(Cc1cccnc1)P(=O)(O)O [RISEDRONIC ACID] | 6.9 | 6.92 | 6.2 | 6.17
7 | CCC(C)CNC(P(=O)(O)O)P(=O)(O)O (stereo not given) | 9 | 8.91 | 19 | 19.5
8 | CCCNC(P(=O)(O)O)P(=O)(O)O [(PROPYLAMINO)METHYLENEDIPHOSPHONIC ACID] | 18 | 18.2 | 35 | 34.7
9 | CCCCCCCCCNC(P(=O)(O)O)P(=O)(O)O [(NONYLAMINO)METHYLENEDIPHOSPHONIC ACID] | 66 | 66.1 | 169 | 170
10 | CCCN(CCC)C(P(=O)(O)O)P(=O)(O)O [(DIPROPYLAMINO)METHYLENEDIPHOSPHONIC ACID] | 41 | 40.7 | 83 | 83.2
11 | CN(CCc1ccccc1)CCC(O)(P(=O)(O)O)P(=O)(O)O | 19 | 19.5 | 23 | 22.9
12 | O=P(O)(O)C(NCc1ccc(F)cc1)P(=O)(O)O |  |  | 63 | 63.1
13 | O=[N+]([O-])c1cccc(CC(O)(P(=O)(O)O)P(=O)(O)O)c1 |  |  | 110 | 110
14 | CCCCCC(O)(P(=O)(O)O)P(=O)(O)O | 90 | 91.2 | 1610 | 1620
15 | O=P(O)(O)C(N1CCCCC1)P(=O)(O)O | 66 | 66.1 | 122 | 120
16 | CC(C)CCNC(P(=O)(O)O)P(=O)(O)O [(ISOPENTYLAMINO)METHYLENEDIPHOSPHONIC ACID] | 40 | 39.8 | 47 | 46.8
17 | O=P(O)(O)C(O)(C[n+]1cc[nH]c1)P(=O)(O)O | 5.2 | 5.25 |  | 
18 | CCCCCNC(P(=O)(O)O)P(=O)(O)O [(PENTYLAMINO)METHYLENEDIPHOSPHONIC ACID] | 7.8 | 7.76 | 41 | 40.7
19 | CC1CCN(C(P(=O)(O)O)P(=O)(O)O)CC1 |  |  | 24 | 23.4
20 | O=P(O)(O)C(Nc1cccnc1)P(=O)(O)O | 14 | 14.5 | 24 | 24
21 | O=P(O)(O)C(O)(Cc1ccncc1)P(=O)(O)O | 22 | 21.4 | 21 | 20.9

Row | Structure (SMILES) | IC50 [1] [µM] | IC50 [2] [µM] | IC50 [3] [µM] | IC50 [4] [µM]
22 | CCN(C1CCCCC1)C(P(=O)(O)O)P(=O)(O)O |  |  | 103 | 102
23 | CN(CCCc1ccccc1)CCC(O)(P(=O)(O)O)P(=O)(O)O | 63 | 63.1 | 121 | 120
24 | NCCCCCC(O)(P(=O)(O)O)P(=O)(O)O [NERIDRONIC ACID] | 1.96 | 195 | 503 | 501
25 | CC(CCCCc1ccccc1)CCC(O)(P(=O)(O)O)P(=O)(O)O (stereo not given) | 9.9 | 10 | 16 | 16.2
26 | O=P(O)(O)C(Sc1ccccn1)P(=O)(O)O |  |  | 67 | 67.6
27 | CC(C)(C)c1cccc(NC(P(=O)(O)O)P(=O)(O)O)c1 |  |  | 25200 | 25100
28 | O=P(O)(O)C(O)(Cc1ccccc1)P(=O)(O)O | 395 | 398 | 2820 | 2820
29 | O=P(O)(O)C(NC1CCCCCCC1)P(=O)(O)O [(CYCLOOCTYLAMINO)METHYLENEDIPHOSPHONIC ACID] | 44 | 43.7 | 110 | 110
30 | CC1CCCCN1C(P(=O)(O)O)P(=O)(O)O (stereo not given) |  |  | 2740 | 2750
31 | O=P(O)(O)C(O)(Cc1ccccn1)P(=O)(O)O | 5.7 | 5.75 | 5.6 | 5.62
32 | CN(C)CCCC(P(=O)(O)O)P(=O)(O)O |  |  | 400 | 398
33 | O=P(O)(O)C(N1CCCCCC1)P(=O)(O)O [N-(HEXAMETHYLENEIMINO)METHYLENEBISPHOSPHONIC ACID] | 11 | 11.2 | 13 | 12.9
34 | Cc1cc(Br)cnc1NC(P(=O)(O)O)P(=O)(O)O |  |  | 72 | 72.4
35 | CCN(CC)C(P(=O)(O)O)P(=O)(O)O [(DIETHYLAMINO)METHYLENEDIPHOSPHONIC ACID] | 132 | 132 | 2910 | 2880
36 | Cc1cccc(NC(P(=O)(O)O)P(=O)(O)O)n1 | 12 | 12 | 28 | 28.2
37 | O=P(O)(O)C(N1CCSCC1)P(=O)(O)O [THIOMORPHOLINOMETHYLENEDIPHOSPHONIC ACID] | 190 | 191 | 597 | 603
38 | CCCCNC(P(=O)(O)O)P(=O)(O)O [(BUTYLAMINO)METHYLENEDIPHOSPHONIC ACID] | 10 | 10.2 | 13 | 12.9
39 | O=P(O)(O)C(Cc1cccnc1)P(=O)(O)O |  |  | 10 | 10.5
40 | Cc1cccnc1NC(P(=O)(O)O)P(=O)(O)O | 4.3 | 4.37 | 4.9 | 4.9
41 | O=P(O)(O)C(CNc1ccncc1)P(=O)(O)O | 9.9 | 10 | 16 | 16.2
42 | O=P(O)(O)C(O)(Cn1ccnn1)P(=O)(O)O |  |  | 2070 | 2090

Row | Structure (SMILES) | IC50 [1] [µM] | IC50 [2] [µM] | IC50 [3] [µM] | IC50 [4] [µM]
43 | O=P(O)(O)C(O)(Cc1c[nH]cn1)P(=O)(O)O | 7.8 | 7.76 | 12 | 12
44 | NCCCCC(O)(P(=O)(O)O)P(=O)(O)O | 102 | 102 | 213 | 214
45 | O=P(O)(O)C(NC1CCCCC1)P(=O)(O)O [(CYCLOHEXYLAMINO)METHYLENEDIPHOSPHONIC ACID] | 40 | 39.8 | 47 | 46.8
46 | Cc1cccc(CC(O)(P(=O)(O)O)P(=O)(O)O)c1 |  |  | 9020 | 8910
47 | NCCC(O)(P(=O)(O)O)P(=O)(O)O [PAMIDRONIC ACID] | 62 | 61.7 | 941 | 933
48 | CC1CCCC(C)N1C(P(=O)(O)O)P(=O)(O)O (stereo not given) |  |  | 1650 | 1660
49 | O=P(O)(O)C(N1CCCCCCC1)P(=O)(O)O [N-(HEPTAMETHYLENEIMINO)METHYLENEBISPHOSPHONIC ACID] |  |  | 68 | 67.6
50 | O=P(O)(O)C(O)(CCNCCCOc1ccccc1)P(=O)(O)O | 98 | 97.7 | 143 | 141
51 | O=P(O)(O)C(Nc1ccccn1)P(=O)(O)O | 7.4 | 7.41 | 16 | 15.5
52 | O=P(O)(O)C(CNc1ccccn1)P(=O)(O)O | 4.8 | 4.9 | 14 | 14.5
53 | CN(C)CCC(O)(P(=O)(O)O)P(=O)(O)O [OLPADRONIC ACID] | 46 | 46.8 | 112 | 112
54 | CCC1CCCCN1C(P(=O)(O)O)P(=O)(O)O (stereo not given) |  |  | 1200 | 1200
55 | CCCCCCC(O)(P(=O)(O)O)P(=O)(O)O | 213 | 214 | 2110 | 2090
56 | Nc1ccc(CC(O)(P(=O)(O)O)P(=O)(O)O)cc1 | 251 | 251 | 19900 | 20000
57 | O=P(O)(O)C(NC1CCCCCC1)P(=O)(O)O [INCADRONIC ACID] | 11 | 11.5 | 15 | 14.8
58 | O=P(O)(O)C(NC1CCC1)P(=O)(O)O [(CYCLOBUTYLAMINO)METHYLENEDIPHOSPHONIC ACID] | 56 | 56.2 | 127 | 126
59 | Cc1ccnc(NC(P(=O)(O)O)P(=O)(O)O)c1 | 13 | 12.6 | 14 | 14.5
60 | NCCCC(O)(P(=O)(O)O)P(=O)(O)O [ALENDRONIC ACID] | 53 | 53.7 | 52 | 52.5
61 | CC1CCCN(C(P(=O)(O)O)P(=O)(O)O)C1 (stereo not given) |  |  | 348 | 347
